# Reference: US9579364B2, “Methods for treating benign prostatic hypertrophy (BPH)” (New York University, priority 2002, dated 2017)
# Several values for one entry are separate records, joined by “and”; a condition that tells them apart may be missing. Identical values can stand only once. Marks after values point to notes of the source that are not given here. Numbered stars: 1 amine (or outer) side, 2 acyl side, 3 side chain; on linkers, the order of the positions; unused ones are H or OH. Square brackets hold non-standard residues; d marks the D form. Side chains are listed from the residue outwards. Peptide text beside a SMILES is read from it. * marks the point of attachment. Ethylenediamine = C(CN[*:2])N[*:1]; Hyp = O=C(O)[C@@H]1C[C@@H](O)CN1; Phg = N[C@H](C(=O)O)c1ccccc1; CO = O=C([*:1])[*:2]; Bn = c1ccc(C*)cc1
# Assays:
# [1] = test system: prostate of estradiol-treated male Wistar rats; test: Estradiol-treated male Wistar rat model of BPH; format: in vivo; settings: for mean gland size: difference not significant
# Description: To evaluate further the efficacy of somatostatin 14 (SS-14) in the treatment of BPH and related urinary tract obstruction, the present inventors used an animal model system in which prostate hyperplasia, together with prostatitis is induced by administration of estradiol to male Wistar rats. The estradiol-treated Wistar rat animal model system was originally described by Robinette (1988, The Prostate 12:271-286; the content of which is incorporated herein in its entirety) as offering an animal model of the inflammation and fibromuscular growth observed in human BPH. Robinette also described the estradiol-treated Wistar rat animal model system as useful for identifying factors and/or xenobiotics that can inhibit or potentially reverse progression of prostatic fibromuscular proliferation. Wilson et al. (Exp Mol Pathol. 2004; 77:7-17; the content of which is incorporated herein in its entirety) also presented guidance pertaining to the estradiol-treated Wistar rat animal model system of Robinette, offering that chronic inflammation induced in the lateral prostate by estrogen treatment is accompanied later by fibromuscular proliferation, which correlates with the prevalence of chronic inflammation in BPH in men. To assay the therapeutic benefit of IGF-I inhibitors in an animal model system, the present inventors utilized the animal model system of Robinette (supra), as modified in accordance with standard methodology as set forth herein.
# Three month old Wistar rats were treated for 2 weeks with 1-cm long 0.078 i.d.×0.125 o.d. Silastic tubings filled with estradiol (E2). Another group of estradiol treated animals was also given SS-14 via Alzet pump implanted into the subcutaneous fat of the back, at a dosage of 15 μg/kg/hour. At the end of the treatment period animals were sacrificed and prostates removed en bloc. A total of four animals were analyzed per group.
# Prior to fixing and embedding, prostates were weighed. Bladder and coagulating glands were removed and the remaining tissues were embedded with urethral opening down. Blocks were then sectioned at 150 μm intervals.
# The effect on total area of prostate occupied by glands was also assessed. To determine whether SS-14 would have an inhibitory effect on the glandular component of the prostate, the area of the organ occupied by glands in transverse sections, including the urethra and cut at the level at which the width of the prostate was maximal, was measured. Gland area is expressed as it relates to the total area of the organ in transverse sections.
# The effect of SS-14 on the Fibromuscular Compartment surrounding the Urethra was also evaluated. To determine whether SS-14 reduced the fibromuscular component of the urethra, tissue sections were immunostained for smooth muscle α actin (αSMA). Each prostate was cut at 5 different levels, with 150 microns between each set of sections. The results of αSMA staining are shown in the photomicrographs depicted in FIG. 8; the whole urethra is indicated by circles and the surrounding fibromuscular layer by arrows.
# [2] = test system: mammary gland; settings: cited from earlier work
# [3] = test system: prostate of intact 28 day old male mice; test: PQ401 or SS14 treatment of intact 28 day old male mice: prostate; format: in vivo
# Protocol: To examine further the effect of various compounds on glandular and fibromuscular development of the prostate, somatostatin-14 (SS14, a native somatostatin) and an exemplary small molecule IGF-I receptor inhibitor PQ401 were assessed in a variety of animal models.
# (§1) In a first experimental approach, the effect of treatment of intact 28 day old male mice with vehicle or PQ401 (a small molecule IGF-I receptor specific inhibitor) or somatostatin-14 (SS14; a native somatostatin) was evaluated. PQ401 and SS14 inhibit IGF-I action. For these experiments, N=5 mice per group. The results of these experiments are presented below in Tables 7-10: […]
# [4] = PQ401 or SS14 treatment of intact 28 day old male mice: body weight; format: in vivo
# Protocol: as §1
# [5] = test system: patients suffering from acromegaly; settings: acromegalic patients, 1 year, cited from earlier work
# [6] = test system: prostate of intact wild-type male mice; test: IGFBP-1 effect on prostate development in 4-wk-old intact wild-type male mice; format: in vivo
# Protocol: FIG. 7 depicts the effect of IGFBP-1 treatment on prostate structures in intact 28 day old male mice. After 7 d of treatment with IGFBP-1 or vehicle, prostate development in both fibromuscular and glandular compartments was analyzed. Effects on fibromuscular development (A), epithelial development (B), lumen size (C), total prostate area (D), and prostate weight (E) are shown. Effects of IGFBP-1 (compared with control) on cell division and programmed cell death are shown in representative photomicrographs (F) showing the effect of IGFBP-1 (lower row) on cell division (left) and apoptosis (right) compared with control animals (top row) Arrows point to Ki67 or TUNEL staining in stroma, and arrows point to those effects in glands. Magnification, 400×. Effects of Ki67 staining (G) for cell division (left) and effects on programmed cell death by TUNEL (right). WT, Wild type.
# Eugonadal intact mice. The effect of treatment with IGH3P-1 on prostate development in 4-wk-old intact wild-type male mice was also studied. When compared with saline-treated control animals, IGFBP-1 inhibited all fibromuscular development, epithelial development, lumen size, prostate area, and prostate weight (FIG. 7, A-E). IGFBP-1 inhibited cell division in the epithelial compartment, and increased apoptosis in both fibromuscular and epithelial compartments (FIGS. 7, F and G).
# [7] = test system: prostate of castrated Ames dwarf mice; test: IGFBP-1 inhibition of GH-induced prostate development in castrated Ames dwarf mice; format: in vivo; settings: 10-wk-old castrated Ames dwarf mice, 7 d
# Protocol: To determine whether IGF-I inhibition could impair prostate development induced by GH-stimulated IGF-I and normal development in eugonadal animals, the effect of IGFBP-1 was tested in the following two models.
# Ames dwarf mice have impaired prostate development because they are deficient in GH. They are also deficient in prolactin, TSH, and gonadotrophins (Andersen et al., 1995, Dev Biol 172:495-503; the entire content of which is incorporated herein by reference). To determine if IGFBP-1 could prevent bGH-induced IGF-I action, 10-wk-old castrated Ames animals were treated with bGH with or without infusion of IGFBP-1 for 7 d. IGFBP-1 inhibited GH-induced fibromuscular and glandular development (Table 6).
# [8] = test system: prostate of IGF-I^(−/−) null male mice; test: Restoration of prostate development in IGF-I(-/-) null male mice; format: in vivo
# Description: That IGF-I was also found to be essential for full prostate development was shown in a series of experiments employing IGF-I^(−/−) null male mice.
# [9] = test system: prostate of Lit/Lit dwarf animals; test: bGH restoration of impaired prostate development in Lit/Lit dwarf animals; format: in vivo; settings: Lit/Lit dwarf mice
# Protocol: These include transgenic mice overexpressing a GH antagonist (that binds to and inactivates GH receptors making the animals functionally deficient in GH), growth hormone releasing factor receptor (GHRH-R^−/−) knockout mice (Lit/Lit), and Ames (df/df) mice (Prop 1 Deficiency). Deficient prostate development in GH inhibitor overexpression animals was previously reported (see Ruan et al, Endocrinology 140:1984-1989, 1999). Analysis of development was determined by dissecting away the periprostatic fat and teasing the glandular structures from the connective tissue in a solution containing collagenase so that the entire glandular tree could be photographed for later structural analysis. Much the same as in the mice overexpressing the mutant growth hormone, the other GH deficient mice had significant impairment of prostate development (p<0.0002) including a reduction in the number of terminal duct tips (TDTs), the area of the prostate gland, the number of quaternary branches and the number of branch points (TABLE 3). Any differences in these GH deficient mice may in part be due to the fact that the different strains were not analyzed at exactly the same age (Lit/Lit 50 days old, Ames 47 days old and bGH transgenic 44 days of age). The n was also different which may have led to greater significance in the Lit/Lit mice.
# The fact that GH treatment was capable of restoring impaired prostate development in GH deficient mice was shown in an experiment on Lit/Lit dwarf animals. Groups of animals were treated with either bGH (100 μg over 7 days by Alzet pump) or vehicle. The prostates were then removed and examined as described above. Treatment with bGH increased the number of TDTs from a mean of 48 (controls) to 61 (treated) p=0.011, the area of the gland from 0.71 cm^2 to 1.12 (NS), quaternary branching from 35 to 44 (p<0.01) and branch points from 37 to 46 (p=0.011).
# [10] = test system: IGF-I; test: IGF-I by RIA in homogenates of prostate glands after bGH; format: in vivo; settings: 87 day old male mice, bGH 200 μg daily for 4 days; untreated 223
# Protocol: IGF-I, as measured by RIA, was detected in homogenates of prostate glands from 87 day old male mice (223 ng/5 prostates). When bGH (200 μg daily for 4 days) was administered IGF-I rose to 418-526 ng/5 prostates. Serum IGF-I was 494 ng/ml in normal male mice. The IGF-I in prostate was likely produced there because bGH increases IGF-I mRNA in prostate.
# [11] = 4-wk-old intact wild-type male mice (FIG. 7, F and G)
molecule,measurement,setting,value
"C[C@]12CC[C@@H]3c4ccc(O)cc4CC[C@H]3[C@@H]1CC[C@@H]2O [E2, estradiol]","Weight of prostates, individual animals","[1]; 3 month old Wistar rats, E2 2 weeks, SS-14 15 μg/kg/hour by Alzet pump, Animal #1-#4",0.570 grams and 0.580 grams and 0.532 grams and 0.630 grams
same,MEAN WEIGHT of prostates,"[1]; 3 month old Wistar rats, E2 2 weeks, SS-14 15 μg/kg/hour, second set of experiments, p=0.019",0.578 grams
same,"Ratio between the prostate area occupied by glandular elements and the whole organ area in transverse sections, individual animals",[1]; E2-treated Wistar rats,0.8467 and 0.857 and 0.8758 and 0.8596
same,"Fibromuscular Layer Area of the urethra, MEAN AREA","[1]; E2-treated Wistar rats, αSMA immunostaining",2.938 mm2
same,"Fibromuscular Layer Area of the urethra, individual animals","[1]; E2-treated Wistar rats, αSMA immunostaining, Animal #1-#4",3.412 mm2 and 1.822 mm2 and 2.369 mm2 and 4.149 mm2
same,mean gland size,[1]; E2-treated Wistar rats,0.099 mm^2
same,"Ratio between the prostate area occupied by glandular elements and the whole organ area in transverse sections, AVERAGE","[1]; E2-treated Wistar rats, p=0.028",0.860
"NCCCC[C@@H]1NC(=O)[C@@H](Cc2c[nH]c3ccccc23)NC(=O)[C@H](c2ccccc2)NC(=O)[C@@H]2C[C@@H](OC(=O)NCCN)CN2C(=O)[C@H](Cc2ccccc2)NC(=O)[C@H](Cc2ccc(OCc3ccccc3)cc2)NC1=O [SOM230, pasireotide] (cyclo(F[Hyp]([CO-Ethylenediamine])[Phg][dW]KY(Bn)))",mammary development in rats,[2],prevent mammary development
same,IRS-1 phosphorylation in the mammary gland,[2]; rats,reduction
"C[C@H](N)C(=O)NCC(=O)N[C@H]1CSSC[C@@H](C(=O)O)NC(=O)[C@H](CO)NC(=O)[C@H]([C@@H](C)O)NC(=O)[C@H](Cc2ccccc2)NC(=O)[C@H]([C@@H](C)O)NC(=O)[C@H](CCCCN)NC(=O)[C@H](Cc2c[nH]c3ccccc23)NC(=O)[C@H](Cc2ccccc2)NC(=O)[C@H](Cc2ccccc2)NC(=O)[C@H](CC(N)=O)NC(=O)[C@H](CCCCN)NC1=O [SS14, Somatostatin-14]",area of the Longitudinal muscle,"[3]; 28 day old male mice, controls 0.939",0.486 mm^2
same,total area of the Circular muscle,"[3]; 28 day old male mice, controls 1.322",0.438 mm^2
same,% Reduction of prostate weight,"[3]; intact 28 day old male mice, vs 28 day control",37%
same,mean gland size,[1]; E2-treated Wistar rats,0.078 mm^2
same,"prostate weight of E2-treated rats, first set of experiments","[1]; vs control E2-treated rats (vehicle only), p=0.024",significant reduction
same,Body weight,[4]; controls 26.9 ± 0.3,23.9 ± 0.3 gm
same,% Reduction of body weight,[4]; vs controls,11%
octreotide,circulating GH and IGF-I levels,[5]; in most of the patients treated,normalization
same,prostate volume,[5],reduction
"IGFBP-1: insulin-like growth factor binding protein, inhibitor of IGF-I action (protein, UniProt P08833 26-259, looked up) Insulin-like growth …: APWQCAPCSAEKLALCPPVSASCSEVTRSAGCGCCPMCALPLGAACGVATARCARGLSCRALPGEQQPLHALTRGQGACVQESDASAPHAAEAGSPESPESTEITEEELLDNFHLMAPSEEDHSILWDAISTYDGSKALHVTNIKKWKEPCRIELYRVVESLAKAQETSGEEISKFYLPNCNKNGFYHSRQCETSMDGEAGLCWCVYPWNGKRIPGSPEIRGDPNCQIYFNVQN",apoptosis in both fibromuscular and epithelial compartments (TUNEL),[6]; [11],increased
same,cell division in the epithelial compartment (Ki67),[6]; [11],inhibited
same,"fibromuscular development, epithelial development, lumen size, prostate area, and prostate weight","[6]; 4-wk-old intact wild-type male mice, 7 d, vs saline-treated control (FIG. 7, A-E)",inhibited
"bGH: growth hormone (bGH) given to GH deficient mice by Alzet pump (protein, UniProt P01246 27-217, looked up) Somatotropin: AFPAMSLSGLFANAVLRAQHLHQLAADTFKEFERTYIPEGQRYSIQNTQVAFCFSETIPAPTGKNEAQQKSDLELLRISLLLIQSWLGPLQFLSRVFTNSLVFGTSDRVYEKLKDLEEGILALMRELEDGTPRAGQILKQTYDKFDTNMRSDDALLKNYGLLSCFRKDLHKTETYLRVMKCRRFGEASCAF",Epithelium,[7],"160.5 ± 4.0^c,d μm^2 (×10^3)"
same,Fibromuscular,[7],"253.4 ± 18.6^a,b μm^2 (×10^3)"
same,Lumen,[7],"274.7 ± 11.9^c,d μm^2 (×10^3)"
same,Total,[7],"688.6 ± 32.4^a,b μm^2 (×10^3)"
same,restoring impaired prostate development,[8],no effect
same,number of TDTs (mean),"[9]; bGH 100 μg over 7 days by Alzet pump, controls 48, p=0.011",61
same,area of the gland,"[9]; bGH 100 μg over 7 days, controls 0.71, NS",1.12 cm^2
same,quaternary branching,"[9]; bGH 100 μg over 7 days, controls 35, p<0.01",44
same,branch points,"[9]; bGH 100 μg over 7 days, controls 37, p=0.011",46
same,IGF-I in homogenates of prostate glands (RIA),[10],418-526 ng/5 prostates
